The test system of data set [1] is Herpes simplex type 1 virus (HFEM strain). Put plainly: Plaque reduction test in Vero cells infected with Herpes simplex type 1 virus. It counts as cell-based. As to the method:
(§1) Vero (African Green Monkey Kidney) cells were grown to confluence in 6 well multidishes, each well being 3.5 cm in diameter. The cells were incubated with Herpes simplex type 1 virus (HFEM strain) and overlaid with 0.5 mL of 0.9% agarose (w/v) in maintenance medium containing the test compound at a range of concentrations from 3 µg/mL in half-log dilution steps. The virus infected cultures were then incubated at 37 °C for 6 days before fixing in 4% formaldehyde solution and staining with carbolfuchsin. The dishes were then examined to find what concentration of test compound causing a 50% reduction in the number of virus plaques formed (PDD50 value) and the minimum concentration of test compound which killed the cell monolayer, leaving a clear zone devoid of cells and virus plaques (MTD).
Background: Plaques are areas of infected cells; plaque reduction assays count them against a control.

Data set [2] deals with Vero (African Green Monkey Kidney) cells. Put plainly: Minimum concentration killing the Vero cell monolayer, read in the plaque reduction test. It is filed as cell-based. The following applies: minimum concentration which killed the cell monolayer; virus-infected Vero cells, 6 days at 37°C. On the procedure:
as §1

Experiment in data set [3]: as above
It is filed as cell-based, African Green Monkey. The conditions noted are these: african green monkey; minimum concentration which killed the cell monolayer; virus-infected Vero cells, 6 days at 37°C; read-out: MTD. On the procedure: as §1

The mark [4] stands for this setting: concentration causing a 50% reduction in the number of virus plaques, 6 days at 37°C.
[5] abbreviates: Human alphaherpesvirus 1, Vero, 144 h, read-out: PDD50, concentration causing a 50% reduction in the number of virus plaques, 6 days at 37°C.
[6] abbreviates: Human alphaherpesvirus 1, Vero, 144 h, read-out: PDD50, same PDD50 values given in µM, 6 days at 37°C.
The mark [7] stands for this setting: same PDD50 values given in µM, 6 days at 37°C, read-out: PDD50 (the source's name).

Structures can show the parent of a compound that is named as a salt. Where two headings read alike, the source gives them in different places.

Take `NC(Cc1ccccc1)C(=O)OC[C@H]1O[C@@H](n2cc(/C=C/Br)c(=O)[nH]c2=O)C[C@@H]1OC(=O)C(N)Cc1ccccc1` (stereo partly drawn) [Example 7, E-5-(2-Bromovinyl)-3',5'-di-O-phenylalanyl-2'-deoxyuridine bis trifluoroacetate]: in data set [1] (concentration causing a 50% reduction in the number of virus plaques, 6 days at 37°C, bis trifluoroacetate), the PDD50 is on record as 0.14 µg/mL. The IC50 in data set [1] (read-out: PDD50, same PDD50 values given in µM, 6 days at 37°C, bis trifluoroacetate) stood at 0.16 µM. For the same molecule, the MTD in data set [2] is given as greater than 100 µg/mL.

`CC(C)C[C@H](N)C(=O)OC[C@H]1O[C@@H](n2cc(/C=C/Br)c(=O)[nH]c2=O)C[C@@H]1OC(=O)[C@@H](N)CC(C)C` [Example 18, E-5-(2-bromovinyl)-3',5'-di-L-leucyl-2'-deoxyuridine bis bisulphate salt]: in data set [1] (setting [4]), the PDD50 turned out to be 0.28 µg/mL. In addition, the IC50 in data set [1] (read-out: PDD50, same PDD50 values given in µM, 6 days at 37°C) came out at 0.37 µM. In data set [2], this molecule displayed an MTD greater than 100 µg/mL.

Consider `CC(C)(C)OC(=O)N1CCC[C@H]1C(=O)O[C@H]1C[C@H](n2cc(/C=C/Br)c(=O)[nH]c2=O)O[C@@H]1CO` [Example 29, E-5-(2-Bromovinyl)-3'-(t-butoxycarbonyl-L-prolyl)-2'-decxyuridine], for which the IC50 in data set [1] (Human alphaherpesvirus 1, 144 h, concentration causing a 50% reduction in the number of virus plaques, 6 days at 37°C, read-out: PDD50 (the source's name)) worked out at 0.64 µg/mL; in data set [1] (Human alphaherpesvirus 1, 144 h, same PDD50 values given in µM, 6 days at 37°C, read-out: PDD50 (the source's name)), 1.21 µM. The MCC at 144 h in data set [3] worked out at 100 µg/mL.

For the molecule `CC(C)C[C@@H](N)C(=O)OC[C@H]1O[C@@H](n2cc(/C=C/Br)c(=O)[nH]c2=O)C[C@@H]1OC(=O)[C@H](N)CC(C)C` [Example 30, E-5-(2-Bromovinyl)-3',5'-di-D-leucyl-2'-deoxyuridine bis trifluoroacetate], the IC50 in data set [1] (setting [5]) turned out to be 0.16 µg/mL; in data set [1] (setting [6]) it was 0.2 µM. Further, the MCC at 144 h in data set [3] is greater than 100 µg/mL.

In the case of `N[C@H](Cc1ccccc1)C(=O)OC[C@H]1O[C@@H](n2cc(/C=C/Br)c(=O)[nH]c2=O)C[C@@H]1OC(=O)[C@H](N)Cc1ccccc1` [Example 31, E-5-(2-Bromovinyl)-3',5'-di-D-phenylalanyl--2'-deoxyuridine bis trifluoroacetate], the IC50 in data set [1] (setting [5]) came to 0.55 µg/mL; in data set [1] (setting [6]), 0.64 µM. The MCC at 144 h in data set [3] is greater than 100 µg/mL.

For the molecule `CSCC[C@H](N)C(=O)OC[C@H]1O[C@@H](n2cc(/C=C/Br)c(=O)[nH]c2=O)C[C@@H]1OC(=O)[C@@H](N)CCSC` [Example 32, E-5-(2-Bromovinyl)-3',5'-di-L-methionyl-2'-deoxyuridine bis trifluoroacetate], the IC50 in data set [1] (setting [5]) is 0.26 µg/mL; in data set [1] (setting [6]), 0.32 µM. In data set [3], the MCC at 144 h was greater than 100 µg/mL.

In the case of `CC(C)[C@H](N)C(=O)OC[C@H]1O[C@@H](n2cc(/C=C/Br)c(=O)[nH]c2=O)C[C@@H]1OC(=O)[C@@H](N)C(C)C` [Example 33, E-5-(2-Bromovinyl)-3',5'-di-L-valyl-2'-deoxyuridine bis trifluoroacetate], the IC50 in data set [1] (setting [5]) turned out to be 0.24 µg/mL; in data set [1] (setting [6]), 0.32 µM. Further, in data set [3], the MCC at 144 h was greater than 100 µg/mL.

Take `CC[C@H](C)[C@H](N)C(=O)OC[C@H]1O[C@@H](n2cc(/C=C/Br)c(=O)[nH]c2=O)C[C@@H]1OC(=O)[C@@H](N)[C@@H](C)CC` [Example 34, E-5-(2-Bromovinyl)-3',5'-di-L-isoleucyl-2'-deoxyuridine bis trifluoroacetate]: the IC50 in data set [1] (setting [5]) came to 0.4 µg/mL; in data set [1] (setting [6]), 0.51 µM. Moreover, the MCC at 144 h in data set [3] was greater than 100 µg/mL.

Turning to `O=C(OC[C@H]1O[C@@H](n2cc(/C=C/Br)c(=O)[nH]c2=O)C[C@@H]1OC(=O)[C@@H]1CCCN1)[C@@H]1CCCN1` [Example 35, E-5-(2-Bromovinyl)-3',5'-di-L-prolyl-2'-deoxyuridine bis trifluoroacetate], the results for the IC50 in data set [1] (setting [5]) and in data set [1] (setting [6]) were 0.22 µg/mL and 0.29 µM, respectively. For the same molecule, the MCC at 144 h in data set [3] was greater than 100 µg/mL.

Turning to `O=C(OC[C@H]1O[C@@H](n2cc(/C=C/Br)c(=O)[nH]c2=O)C[C@@H]1O)[C@@H]1CCCN1` [Example 36, E-5-(2-Bromovinyl)-5'-L-prolyl-2'-deoxyuridine trifluoroacetate], the results for the IC50 in data set [1] (setting [5]) and in data set [1] (setting [6]) were 0.55 µg/mL and 1.01 µM, respectively. Further, the MCC at 144 h in data set [3] is greater than 100 µg/mL.

On to `O=C(O[C@H]1C[C@H](n2cc(/C=C/Br)c(=O)[nH]c2=O)O[C@@H]1CO)[C@@H]1CCCN1` [Example 37, E-5-(2-Bromovinyl)-3'-L-prolyl-2'-deoxyuridine trifluoroacetate], for which the figures for the IC50 in data set [1] (setting [5]) and in data set [1] (setting [6]) were 0.68 µg/mL and 1.25 µM, respectively. The MCC at 144 h in data set [3] is greater than 100 µg/mL.

Consider `NC(=O)CC[C@H](N)C(=O)OC[C@H]1O[C@@H](n2cc(/C=C/Br)c(=O)[nH]c2=O)C[C@@H]1OC(=O)[C@@H](N)CCC(N)=O` [Example 39, bis trifluoroacetate], for which the IC50 turned out to be 0.42 µg/mL in data set [1] (setting [5]) and 0.51 µM in data set [1] (setting [6]). The MCC at 144 h in data set [3] was greater than 100 µg/mL.

In turn, “E-5-(2-Bromovinyl)-3',5'-di-L-alanyl-2'-deoxyuridine bis trifluoroacetate [Example 38]” came in with a PDD50 in data set [1] (setting [4]) of 0.26 µg/mL. Further, the IC50 in data set [1] (setting [7]) was 0.37 µM. This molecule returned an MTD in data set [2] greater than 100 µg/mL.

Take “E-5-(2-Bromovinyl)-3',5'-di-L-leucyl-2'-deoxyuridine bis trihydrogenpyrophosphate [Example 41]”: in data set [1] (setting [4]), the PDD50 was 0.55 µg/mL. In data set [1] (setting [7]), the IC50 amounted to 0.6 µM. In data set [2], this molecule registered an MTD greater than 100 µg/mL.

Molecule “E-5-(2-Bromovinyl)-3',5'-di-glycyl-2'-deoxyuridine bis bisulphate [Example 17]” had a PDD50 in data set [1] (setting [4]) of 0.49 µg/mL. The IC50 in data set [1] (setting [7]) came out at 0.76 µM. For the same molecule, the MTD in data set [2] is on record as greater than 100 µg/mL.

In data set [1] (setting [4]), “E-5-(2-Bromovinyl)-5'-O-phenylalanyl-2'-deoxyuridine trifluoroacetate [Example 9]” displayed a PDD50 of 0.19 µg/mL. Moreover, in data set [1] (setting [7]), the IC50 was 0.32 µM. In data set [2], this molecule returned an MTD greater than 100 µg/mL.

In data set [1] (setting [4]), “E-5-(2-bromovinyl)-3',5'-di-L-lysyl-2'-deoxyuridine tetrakis trifluoroacetate dihydrate [Example 40]” showed a PDD50 of 0.19 µg/mL. Also, the IC50 in data set [1] (setting [7]) worked out at 0.18 µM. Moreover, the MTD in data set [2] is given as greater than 100 µg/mL.

The values above are taken from patent publication EP0080305A1, “Antiviral 2'-deoxyuridines, their preparation and use” (BEECHAM GROUP PLC, priority 1981, dated 1983).
